# Key:
# [1] = Impurity stability of CBD sublingual spray formulation; assay type: physicochemical; set-up: unit not given here
# Protocol: Stability data was established for formulations with 25 mg/spray, 0.2% sucralose, 0.4% strawberry flavor, and 10% ethanol in the presence of MCT oil. […] This can be extrapolated to assigning a one year expiration at room temperature for lipid based formulation. See Table 1 through 2 for stability data of impurities and assay.
# [2] = system: chronic inflammatory and neuropathic pain; settings: rodents; cited from earlier work
# [3] = system: human experimental psychosis; settings: cited from earlier work
# anxiety = settings: patients with social anxiety disorder; cited from earlier work
# breast tumor cell lines = settings: different breast tumor cell lines; cited from earlier work
# non-cancer cells = settings: compared with breast tumor cell lines; cited from earlier work
# [4] = system: estrogen receptor-positive and estrogen receptor-negative breast cancer cells; settings: cited from earlier work
# [5] = system: non-tumorigenic, mammary cells; settings: at concentrations effective in tumor cells; cited from earlier work
# [6] = 700 milligrams per day for 6 weeks; cited from earlier work
# toxin-induced vomiting = settings: low doses; cited from earlier work
# incidence of diabetes = settings: non-obese diabetic mice, cited from earlier work
# [7] = system: vascular damage, vascular hyperpermeability; settings: high glucose environment, inflammation or induction of type 2 diabetes in animal models; cited from earlier work
# seizure frequency = settings: cited from earlier work
# seizures = settings: doses up to 25 milligrams per kilogram of body weight; cited from earlier work
smiles,measurement,setting,value
"C=C(C)[C@@H]1CCC(C)=C[C@H]1c1c(O)cc(CCCCC)cc1O [CBD, cannabidiol]",CBD peak (RRT 1.00) in impurity stability data,[1]; T = 0,99.24
same,CBD peak (RRT 1.00) in impurity stability data,[1]; T = 2wk 25 C.,99.05
same,CBD peak (RRT 1.00) in impurity stability data,[1]; T = 2wk 40 C.,98.60
same,CBD peak (RRT 1.00) in impurity stability data,[1]; T = 4wk 25 C.,98.75
same,CBD peak (RRT 1.00) in impurity stability data,[1]; T = 4wk 40 C.,97.96
same,Analgesic tolerance,[2],without causing analgesic tolerance
same,Suppression of chronic inflammatory and neuropathic pain,[2],significantly suppressed chronic inflammatory and neuropathic pain
same,Effect on human experimental psychosis,[3],prevents human experimental psychosis
same,Effect on anxiety,anxiety,reduce anxiety
same,Inhibition of growth of breast tumor cell lines,breast tumor cell lines,potently and selectively inhibited the growth
same,Potency in non-cancer cells,non-cancer cells,significantly less potency in non-cancer cells
same,Cell death of breast cancer cells,[4],induced a concentration-dependent cell death
same,Effect on non-tumorigenic mammary cells,[5],little effect
same,Overt toxicity in humans,[6],did not show any overt toxicity
same,Effect on toxin-induced vomiting,toxin-induced vomiting,suppresses toxin-induced vomiting
same,Incidence of diabetes,incidence of diabetes; 86 percent in non-treated mice,30%
same,"Insulitis, histological examination of pancreatic islets",incidence of diabetes,significantly reduced insulitis
same,Plasma levels of pro-inflammatory cytokines,incidence of diabetes,significant reduction
same,Protection against vascular damage,[7],protects against the vascular damage
same,Parents reporting a reduction in their child's seizure frequency,seizure frequency; 16 of 19 parents,84%
same,Parents reporting greater than 80 percent reduction in seizure frequency,seizure frequency; eight of 19 parents,42%
same,Side effects,"seizure frequency; parent survey, children with epilepsy",drowsiness and fatigue
same,Parents reporting 25-60 percent seizure reduction,seizure frequency; six of 19 parents,32%
same,Parents reporting complete seizure freedom,seizure frequency; two of 19 parents,11%
same,Tolerability,seizures,generally well-tolerated

# Source: patent US20210137828A1, “Cannabidiol Sublingual Spray Formulations” (priority 2019, published 2021)
